# Tested on: rat smooth muscle cells
# Experiment: Serum-stimulated rat smooth muscle cell proliferation (BrdU incorporation)
# Assay type: cell-based
# Settings: for % cell proliferation: no ribozyme; for augmentation of ribozyme inhibition of smooth muscle cell proliferation: 0.2 μM ribozyme 575 12/12 complexed with DMRIE/DOPE at 1:1 charge ratio
# Description: The ribozymes that cleaved c-myb RNA described above were assayed for their effect on smooth muscle cell proliferation. Rat vascular smooth muscle cells were isolated and cultured as follows. Aortas from adult Sprague-Dawley rats were dissected, connective tissue was removed under a dissecting microscope, and 1 mm^2 pieces of the vessel were placed, intimal side up, in a Petri dish in Modified Eagle's Medium (MEM) with the following additives: 10% FBS, 2% tryptose phosphate broth, 1% penicillin/streptomycin and 2 mM L-Glutamine. The smooth muscle cells were allowed to migrate and grow to confluence over a 3-4 week period. These primary cells were frozen and subsequent passages were grown at 37° C. in 5% CO2 in Dulbecco's modified Eagle's medium (DMEM), 10% fetal bovine serum (FBS), and the following additives: 2 mM L-Glutamine, 1% penicillin/streptomycin, 1 mM sodium pyruvate, non-essential amino acids (0.1 mM of each amino acid), and 20 mM Hepes pH 7.4. Cells passed four to six times were used in proliferation assays. For the cell proliferation assays, 24-well tissue culture plates were prepared by coating the wells with 0.2% gelatin and washing once with phosphate-buffered saline (PBS). RASMC were inoculated at 1×10^4 cells per well in 1 ml of DMEM plus 10% FBS and additives and incubated for 24 hours. The cells were subconfluent when plated at this density. The cells were serum-starved by removing the medium, washing once with PBS, and incubating 48-72 hours in DMEM containing 0.5% FBS plus additives.
# Serum-starved smooth muscle cells were washed twice with PBS, and the RNA/lipid complex was added. The plates were incubated for 4 hours at 37° C. The medium was then removed and DMEM containing 10% FBS, additives and 10 μM bromodeoxyuridine (BrdU) was added. In some wells, FBS was omitted to determine the baseline of unstimulated proliferation. The plates were incubated at 37° C. for 20-24 hours, fixed with 0.3% H2 O2 in 100% methanol, and stained for BrdU incorporation by standard methods. In this procedure, cells that have proliferated and incorporated BrdU stain brown; non-proliferating cells are counter-staineda light purple. Both BrdU positive and BrdU negative cells were counted under the microscope. 300-600 total cells per well were counted. In the following experiments, the percentage of the total cells that have incorporated BrdU (% cell proliferation) is presented. […] Percent inhibition then is calculated from the % cell proliferation values as follows: % inhibition=100-100((Ribozyme-0% serum)/(Control-0% serum)).
# These include, but are not limited to, ammonium chloride, carbonyl cyanide p-trifluoromethoxy phenyl hydrazone (FCCP), chloroquine, monensin, colchicine, and viral particles (Cotten, M. et al., 1990, Proc. Natl. Acad. Sci. USA, 87, 4033-4037; Cotten, M. et al., 1993, J. Virol., 67, 3777-3785; Cotten, M. et al., 1992, Proc. Natl. Acad. Sci USA, 89, 6094-6098; Cristiano, R. J. et al., 1993, Proc. Natl. Acad. Sci. U S A, 90, 2122-6; Cudel, D. T. et al., 1991, Proc. Nat. Acad. Sci., USA, 88, 8850-8854; Ege, T. et al., 1984, Exp. Cell Res., 155, 9-16; Harris, C. E. et al., 1993, Am. J. Respir. Cell Mol. Biol., 9, 441-7; Seth, P. et al., 1994, J. Virol., 68, 933-40; Zenke, M. et al., 1990, Proc. Natl. Acad. Sci. USA, 87, 3655-3659). […] To determine whether such agents may augment the functional delivery of RNA and ribozymes to smooth muscle cells, the effects of chloroquine on ribozyme inhibition of smooth muscle cell proliferation were assessed. […]
smiles,measurement,setting,value
CCN(CC)CCCC(C)Nc1ccnc2cc(Cl)ccc12 (centres unmarked) [chloroquine],% cell proliferation,"10 μM chloroquine added upon stimulation, stimulation with 10% serum",80.5±1.5%
same,augmentation of ribozyme inhibition of smooth muscle cell proliferation,10 μM chloroquine,two- to three-fold
same,augmentation of ribozyme inhibition of smooth muscle cell proliferation,"10 μM chloroquine, listed as Chloroquine",2- to 3 fold
same,effect of chloroquine on untreated cells (proliferation),"10 μM chloroquine, cells without ribozyme",no effect
same,% cell proliferation,"10 μM chloroquine, unstimulated cells",7±0.5%

# From patent US5646042A, “C-myb targeted ribozymes” (Ribozyme Pharmaceuticals, Inc., priority 1995, dated 1997)
